From the supplement of paper PMC10307832

What was measured:
Experiment in all cases: relative viability (nuclei count vs DMSO), 5 days (fraction); higher = more cells survive
BEN = test system: BEN
How it was run: (§1)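 Lung cancer cell lines were pin-tool dosed in 1536-well plates on the day after seeding, with either a lone drug or a fixed anchor-drug dose plus five library-drug doses (not always all listed) in √10 steps. Nuclei were counted on 4× images after 5 days. Relative viability is the ratio of treated-well to vehicle-well nuclei counts, with each value a median of duplicate plates.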

NCI-H1792 = test system: NCI-H1792
How it was run: as §1

NCI-H647 = test system: NCI-H647
How it was run: as §1

EKVX = test system: EKVX
How it was run: as §1

NCI-H661 = test system: NCI-H661
How it was run: as §1

NCI-H596 = test system: NCI-H596
How it was run: as §1

NCI-H1734 = test system: NCI-H1734
How it was run: as §1

NCI-H2405 = test system: NCI-H2405
How it was run: as §1

NCI-H1437 = test system: NCI-H1437
How it was run: as §1

HCC-366 = test system: HCC-366
How it was run: as §1

HCC-44 = test system: HCC-44
How it was run: as §1

HARA = test system: HARA
How it was run: as §1

NCI-H1355 = test system: NCI-H1355
How it was run: as §1

LOU-NH91 = test system: LOU-NH91
How it was run: as §1

SK-LU-1 = test system: SK-LU-1
How it was run: as §1

LC-2-ad = test system: LC-2-ad
How it was run: as §1

HCC-827 = test system: HCC-827
How it was run: as §1

NCI-H2009 = test system: NCI-H2009
How it was run: as §1

NCI-H2228 = test system: NCI-H2228
How it was run: as §1

NCI-H2087 = test system: NCI-H2087
How it was run: as §1

`C[C@@H]1CN(CC(=O)Nc2ccc3c(c2)Cc2cccc(-c4cc(=O)cc(N5CCOCC5)o4)c2S3)C[C@H](C)O1` + CC(C)C[C@H](NC(=O)[C@H](Cc1ccccc1)NC(=O)c1cnccn1)B(O)O [Bortezomib] (partner 0.002 µM) gave a relative viability (BEN; first compound 0.04 µM) of 0.624, a relative viability (BEN; first compound 0.1265 µM) of 0.71 and a relative viability (BEN; first compound 0.4 µM) of 0.861. The relative viability (BEN; first compound 4 µM) was 0.788, the relative viability (NCI-H1792; first compound 0.04 µM) was 0.939 and the relative viability (NCI-H1792; first compound 0.1265 µM) was 0.913. For the same molecule, the relative viability (NCI-H1792; first compound 0.4 µM) was 0.924, the relative viability (NCI-H1792; first compound 4 µM) was 0.859 and the relative viability (NCI-H647; first compound 0.04 µM) was 1. For the same molecule, the relative viability (NCI-H647; first compound 0.1265 µM) was 1.02, the relative viability (NCI-H647; first compound 0.4 µM) was 0.985 and the relative viability (NCI-H647; first compound 4 µM) was 0.484. The relative viability (EKVX; first compound 0.04 µM) was 1.19, the relative viability (EKVX; first compound 0.1265 µM) was 1.02 and the relative viability (EKVX; first compound 0.4 µM) was 0.945. For the same molecule, the relative viability (EKVX; first compound 4 µM) was 0.705, the relative viability (NCI-H661; first compound 0.1265 µM) was 0.798 and the relative viability (NCI-H661; first compound 0.4 µM) was 0.765. It also gave a relative viability (NCI-H661; first compound 4 µM) of 0.778, a relative viability (NCI-H596; first compound 0.04 µM) of 0.937 and a relative viability (NCI-H596; first compound 0.1265 µM) of 1.12. The relative viability (NCI-H596; first compound 0.4 µM) was 1.01, the relative viability (NCI-H596; first compound 4 µM) was 0.923 and the relative viability (NCI-H1734; first compound 0.04 µM) was 1.07. It also gave a relative viability (NCI-H1734; first compound 0.1265 µM) of 1.04, a relative viability (NCI-H1734; first compound 0.4 µM) of 0.927 and a relative viability (NCI-H1734; first compound 4 µM) of 1.1. For the same molecule, the relative viability (NCI-H2405; first compound 0.04 µM) was 0.984, the relative viability (NCI-H2405; first compound 0.1265 µM) was 0.995 and the relative viability (NCI-H2405; first compound 0.4 µM) was 0.978. For the same molecule, the relative viability (NCI-H2405; first compound 4 µM) was 0.994, the relative viability (NCI-H1437; first compound 0.04 µM) was 0.486 and the relative viability (NCI-H1437; first compound 0.1265 µM) was 0.529. For the same molecule, the relative viability (NCI-H1437; first compound 0.4 µM) was 0.489, the relative viability (NCI-H1437; first compound 4 µM) was 0.45 and the relative viability (HCC-366; first compound 0.04 µM) was 0.999. The relative viability (HCC-366; first compound 0.1265 µM) was 1.04, the relative viability (HCC-366; first compound 0.4 µM) was 1.24 and the relative viability (HCC-366; first compound 4 µM) was 0.978. It also gave a relative viability (HCC-44; first compound 0.04 µM) of 0.952, a relative viability (HCC-44; first compound 0.1265 µM) of 0.938 and a relative viability (HCC-44; first compound 0.4 µM) of 0.982. It also gave a relative viability (HCC-44; first compound 4 µM) of 0.796, a relative viability (HARA; first compound 0.04 µM) of 1.14 and a relative viability (HARA; first compound 0.1265 µM) of 1.15. For the same molecule, the relative viability (HARA; first compound 0.4 µM) was 1.09, the relative viability (HARA; first compound 4 µM) was 1.05 and the relative viability (NCI-H1355; first compound 0.04 µM) was 1.2. The relative viability (NCI-H1355; first compound 0.1265 µM) was 1.23, the relative viability (NCI-H1355; first compound 0.4 µM) was 1.19 and the relative viability (NCI-H1355; first compound 4 µM) was 1.18. It also gave a relative viability (LOU-NH91; first compound 0.04 µM) of 0.495, a relative viability (LOU-NH91; first compound 0.1265 µM) of 0.446 and a relative viability (LOU-NH91; first compound 0.4 µM) of 0.428. The relative viability (LOU-NH91; first compound 4 µM) was 0.527, the relative viability (SK-LU-1; first compound 0.04 µM) was 1.17 and the relative viability (SK-LU-1; first compound 0.1265 µM) was 1.43. The relative viability (SK-LU-1; first compound 0.4 µM) was 1.09, the relative viability (SK-LU-1; first compound 4 µM) was 1.13 and the relative viability (LC-2-ad; first compound 0.04 µM) was 1.09. It also gave a relative viability (LC-2-ad; first compound 0.1265 µM) of 0.981, a relative viability (LC-2-ad; first compound 0.4 µM) of 0.936 and a relative viability (LC-2-ad; first compound 4 µM) of 0.847. For the same molecule, the relative viability (HCC-827; first compound 0.04 µM) was 1.01, the relative viability (HCC-827; first compound 0.1265 µM) was 1.02 and the relative viability (HCC-827; first compound 0.4 µM) was 1.06. For the same molecule, the relative viability (HCC-827; first compound 4 µM) was 1.09, the relative viability (NCI-H2009; first compound 0.04 µM) was 0.982 and the relative viability (NCI-H2009; first compound 0.1265 µM) was 1.01. For the same molecule, the relative viability (NCI-H2009; first compound 0.4 µM) was 0.933, the relative viability (NCI-H2009; first compound 4 µM) was 0.714 and the relative viability (NCI-H2228; first compound 0.04 µM) was 0.932. For the same molecule, the relative viability (NCI-H2228; first compound 0.1265 µM) was 0.877, the relative viability (NCI-H2228; first compound 0.4 µM) was 0.821 and the relative viability (NCI-H2228; first compound 4 µM) was 0.523. For the same molecule, the relative viability (NCI-H2087; first compound 0.04 µM) was 0.751, the relative viability (NCI-H2087; first compound 0.1265 µM) was 0.808 and the relative viability (NCI-H2087; first compound 0.4 µM) was 0.948. It also gave a relative viability (NCI-H2087; first compound 4 µM) of 0.652.
